Measurements reported in PMC5877965 (Proceedings of the National Academy of Sciences of the …, 2018).

Assays:
human M2 mAChR = human M2 mAChR (Homo sapiens, UniProt P08172); type: binding
[1] = molecular target: all five receptor subtypes; conditions: cited from earlier work

Sequence of human M2 mAChR (P08172 whole entry): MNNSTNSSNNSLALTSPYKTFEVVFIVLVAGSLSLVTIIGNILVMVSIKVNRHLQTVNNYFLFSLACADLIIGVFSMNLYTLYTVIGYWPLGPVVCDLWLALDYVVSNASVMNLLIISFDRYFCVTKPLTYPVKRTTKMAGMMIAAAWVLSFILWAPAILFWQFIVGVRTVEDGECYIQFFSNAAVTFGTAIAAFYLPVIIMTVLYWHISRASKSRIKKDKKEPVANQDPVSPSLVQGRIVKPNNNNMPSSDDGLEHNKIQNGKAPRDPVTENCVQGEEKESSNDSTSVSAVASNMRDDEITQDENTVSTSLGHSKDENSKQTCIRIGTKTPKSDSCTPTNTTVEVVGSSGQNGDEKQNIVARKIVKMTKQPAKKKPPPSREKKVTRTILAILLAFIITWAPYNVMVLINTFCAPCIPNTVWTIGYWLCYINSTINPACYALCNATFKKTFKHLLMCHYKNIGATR

Row | Structure (SMILES) | allosteric effect on [3H]NMS binding (in words) (human M2 mAChR) | Kd [1]
1 | COc1nc2sc(C(=O)NC3CC3)c(N)c2c(C)c1Cl [LY2033298] | small NAM effect | 
2 | CC[N+](CC)(CC)CCOc1cccc(OCC[N+](CC)(CC)CC)c1OCC[N+](CC)(CC)CC [Gallamine, gallamine] | substantially reduced the specific binding | 
3 | CN1[C@@H]2C[C@@H](OC(=O)[C@H](CO)c3ccccc3)C[C@H]1[C@@H]1O[C@@H]12 [scopolamine] |  | 0.4 to 2.1 nM
